Measurements published in publication PMC10803328 (Scientific Reports, 2024).
“And” between values parts separate entries of the source, which are not always exact repeats. Equal entries are not always repeated.

Experiments:
[1] = PET imaging and arterial plasma radiometabolite analysis in non-transduced healthy monkey; format: in vivo, rhesus monkey
Experimental: All PET imaging studies were performed with a Mediso LFER 150 preclinical scanner (nanoScan PET/CT). Brain and brain region radioactivity uptake was expressed by standardized uptake value (SUV) which normalizes for injected radioactivity and monkey body weight, as follows: SUV = [(% injected dose per g tissue) × body weight in g]/100.
Two male rhesus monkeys (macaca mulatta; 10.0 and 8.6 kg) underwent PET scanning. Each monkey was initially immobilized with ketamine (10 mg/kg, i.m.) and then maintained under anesthesia with 1.5% isoflurane. For each monkey, a baseline scan was performed for 120 min. […] Electrocardiogram, body temperature, heart, and respiration rates were monitored throughout the scans.
Total radioactivity concentrations in sampled arterial whole blood and plasma were measured in a γ-counter throughout the 90-min scanning period.
PET images were reconstructed using Fourier rebinding plus two-dimensional filtered back-projection with attenuation and scatter correction. Images were co-registered to a standardized monkey MRI template using the FMRIB Software Library (FSL; Oxford, UK). Thirty-four predefined brain regions of interest from the template were applied to the co-registered PET image to obtain regional, decay-corrected, time-activity curves.

[2] = Plasma free fraction, monkey plasma; format: in vitro ADME, rhesus monkey; details: baseline
Experimental: (§1) In vitro stability was calculated by dividing the relative composition of the blood or brain homogenate determined with radio-HPLC by the initial radiochemical purity of the radioligand. […] The mixture was incubated at room temperature for 10 min and then processed exactly as described previously. The ultrafiltration components that contained high radioactivity were allowed time for radioactivity decay to within the optimal range of the γ-counter before they were counted again.

PSAM^4-GlyR = PSAM^4-GlyR (Homo sapiens, UniProt P23415+P36544, L131G/Q139L/Y217F); set-up: expressed in transfected cells; method as in PMID 30872534, PMID 24556591, PMID 36279419; details: read-out: PSAM^4-GlyR (Ki); in vitro binding assay, literature; cited from earlier work
Sequence of PSAM^4-GlyR (P36544+P23415 fused P36544:L131G/P36544:Q139L/P36544:Y217F): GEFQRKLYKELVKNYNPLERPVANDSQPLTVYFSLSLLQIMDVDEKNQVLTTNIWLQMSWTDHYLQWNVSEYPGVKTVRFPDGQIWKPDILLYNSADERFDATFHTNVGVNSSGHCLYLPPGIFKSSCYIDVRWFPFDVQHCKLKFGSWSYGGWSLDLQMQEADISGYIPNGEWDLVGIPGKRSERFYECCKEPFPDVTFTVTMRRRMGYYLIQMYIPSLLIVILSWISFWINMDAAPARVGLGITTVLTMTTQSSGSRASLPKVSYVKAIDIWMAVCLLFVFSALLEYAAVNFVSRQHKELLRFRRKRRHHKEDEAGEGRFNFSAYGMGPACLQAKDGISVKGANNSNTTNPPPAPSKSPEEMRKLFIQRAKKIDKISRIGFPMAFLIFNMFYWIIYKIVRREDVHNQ

[3] = In vitro stability in rat brain homogenate, whole blood and plasma; format: in vitro ADME
Experimental: as §1
Five milliliters of anticoagulated blood (STD-A) and brain (1.8 g) were harvested from a wild-type rat (~ 450 g) and used in the in vitro assays. The brains were immediately weighed and homogenized with twice their weights (3.6 mL) of ice cold 0.9% NaCl solution. Plasmas were separated from whole blood via centrifugation. […] Following incubation, aliquots (450 µL) were removed for radio-analysis and processed as detailed above for radio-HPLC analysis.
Anticoagulated blood (STD-A; 5 mL) and brain (1.8 g) were harvested from a wild-type rat (~ 450 g) and used for the in vitro assays. The brains were immediately weighed and homogenized with twice their weights (3.6 mL) of ice-cold 0.9% saline. Plasma was separated from whole blood via centrifugation. […] Aliquots (450 µL) were then removed for radio analysis and processed as detailed above for radio-HPLC analysis.

[4] = non-transduced healthy monkey, i.v., PET
[5] = in vitro incubation at 37 °C, rat

SMILES: [11CH3]n1c(=O)cnc2cc3c(cc21)C1CNCC3C1 (stereo not shown) [[^11C]uPSEM792]
- time at which radiometabolites represented half of the radioactivity in plasma ([1]; male, rhesus monkey, in vivo): 78 min
- unchanged radioligand peak in plasma radiochromatogram ([1]; male, rhesus monkey, in vivo, 120 min): 29%
- peak of whole brain time-activity curve [1, 4]: 0.8 SUV and ~ 0.8 SUV
- plateau of whole brain time-activity curve [1, 4]: about 0.65 SUV
- fP (%) ([2]; PSAM^4-GlyR monkey): 89.42%
- fP (%) ([2]; non-transduced healthy monkey): 89.29%
- Ki (PSAM^4-GlyR): 0.7 nM
- in vitro stability in homogenized non-perfused rat brain ([3]; 30 min at 37 °C): 94%
- in vitro stability in rat plasma ([3]; 30 min at 37 °C): 85.4%
- in vitro stability in rat whole blood ([3]; 30 min at 37 °C): 83.8%
- HPLC Composition (%), in vitro fresh rat brain ([3]; in vitro incubation at 37 °C): 92%
- HPLC Composition (%), in vitro plasma [3, 5]: 83%
- HPLC Composition (%), in vitro whole blood [3, 5]: 82%
